pIC50: −log10 of the molar value.
Experiments:
[1] = target: [35S]-TBPS binding, rat brain cortical membranes (GABA receptor complex); test: Steroid inhibition of [35S]-TBPS binding; settings: 3 nM [35S]-TBPS, 5 μM GABA
Protocol: Steroid Inhibition of TBPS Binding
[35S]-t-Butylbicyclophosphorothionate (TBPS) binding assays using rat brain cortical membranes in the presence of 5 μM GABA has been described (Gee et al, J. Pharmacol. Exp. Ther. 1987, 241, 346-353; Hawkinson et al, Mol. Pharmacol. 1994, 46, 977-985; Lewin, A. H et al., Mol. Pharmacol. 1989, 35, 189-194).
Briefly, cortices are rapidly removed following decapitation of carbon dioxide-anesthetized Sprague-Dawley rats (200-250 g). The cortices are homogenized in 10 volumes of ice-cold 0.32 M sucrose using a glass/teflon homogenizer and centrifuged at 1500×g for 10 min at 4° C. The resultant supernatants are centrifuged at 10,000×g for 20 min at 4° C. to obtain the P2 pellets. The P2 pellets are resuspended in 200 mM NaCl/50 mM Na-K phosphate pH 7.4 buffer and centrifuged at 10,000×g for 10 min at 4° C. This washing procedure is repeated twice and the pellets are resuspended in 10 volumes of buffer. Aliquots (100 μL) of the membrane suspensions are incubated with 3 nM [^35S]-TBPS and 5 μL aliquots of test drug dissolved in dimethyl sulfoxide (DMSO) (final 0.5%) in the presence of 5 μM GABA. The incubation is brought to a final volume of 1.0 mL with buffer. Nonspecific binding is determined in the presence of 2 μM unlabeled TBPS and ranged from 15 to 25%. Following a 90 min incubation at room temp, the assays are terminated by filtration through glass fiber filters (Schleicher and Schuell No. 32) using a cell harvester (Brandel) and rinsed three times with ice-cold buffer. Filter bound radioactivity is measured by liquid scintillation spectrometry. Non-linear curve fitting of the overall data for each drug averaged for each concentration is done using Prism (GraphPad). […] The concentration of test compound producing 50% inhibition (IC50) of specific binding and the maximal extent of inhibition (Imax) are determined for the individual experiments with the same model used for the overall data and then the means±SEM.s of the individual experiments are calculated.
Various compounds are or can be screened to determine their potential as modulators of [^35S]-TBPS binding in vitro. These assays are or can be performed in accordance with the above discussed procedures.

GABAA receptor α1β2γ2 = target: T1, GABAA receptor α1β2γ2 (Homo sapiens, UniProt P14867+P47870); test: Patch clamp electrophysiology, Qpatch in Ltk cells; type: cell-based; settings: 10 μM test article, GABA EC20 2 μM, read-out: GABA (α1β2γ2) Qpatch in Ltk, % efficacy at 10 μM
T1 construct: expressed in transfected cells
Protocol: Patch Clamp Electrophysiology of Recombinant α1β2γ2 and α4β3δ GABAA Receptors
Cellular electrophysiology is used to measure the pharmacological properties of our GABAA receptor modulators in heterologous cell systems. Each compound is tested for its ability to affect GABA mediated currents at a submaximal agonist dose (GABA EC20=2 μM). LTK cells are stably transfected with the α1β2γ2 subunits of the GABA receptor and CHO cells are transiently transfected with the α4β3δ subunits via the Lipofecatamine method. Cells were passaged at a confluence of about 50-80% and then seeded onto 35 mm sterile culture dishes containing 2 ml culture complete medium without antibiotics or antimycotics. Confluent clusters of cells are electrically coupled (Pritchett et al., Science, 1988, 242, 1306-1308.). Because responses in distant cells are not adequately voltage clamped and because of uncertainties about the extent of coupling (Verdoorn et al., Neuron 1990, 4, 919-928.), cells were cultivated at a density that enables the recording of single cells (without visible connections to other cells).
Whole cell currents were measured with HEKA EPC-10 amplifiers using PatchMaster software or by using the high throughput QPatch platform (Sophion). Bath solution for all experiments contained (in mM): NaCl 137 mM, KCl 4 mM, CaCl2 1.8 mM, MgCl2 1 mM, HEPES 10 mM, D-Glucose 10 mM, pH (NaOH) 7.4. In some cases 0.005% cremophor was also added. Intracellular (pipette) solution contained: KCl 130 mM, MgCl2 1 mM, Mg-ATP 5 mM, HEPES 10 mM, EGTA 5 mM, pH 7.2. During experiments, cells and solutions were maintained at room temperature (19° C.-30° C.). For manual patch clamp recordings, cell culture dishes were placed on the dish holder of the microscope and continuously perfused (1 ml/min) with bath solution. After formation of a Gigaohm seal between the patch electrodes and the cell (pipette resistance range: 2.5 MΩ-6.0 MΩ; seal resistance range: >1 GΩ) the cell membrane across the pipette tip was ruptured to assure electrical access to the cell interior (whole-cell patch-configuration). For experiments using the QPatch system, cells were transferred as suspension to the QPatch system in the bath solution and automated whole cell recordings were performed.
Cells were voltage clamped at a holding potential of −80 mV. For the analysis of test articles, GABA receptors were stimulated by 2 μM GABA after sequential pre-incubation of increasing concentrations of the test article. Pre-incubation duration was 30 s and the duration of the GABA stimulus was 2 s. Test articles were dissolved in DMSO to form stock solutions (10 mM). Test articles were diluted to 0.01, 0.1, 1, and 10 μM in bath solution. All concentrations of test articles were tested on each cell. The relative percentage potentiation was defined as the peak amplitude in response to GABA EC20 in the presence of the test article divided by the peak amplitude in response to GABA EC20 alone, multiplied by 100.

T1 sequence (P14867 28-456): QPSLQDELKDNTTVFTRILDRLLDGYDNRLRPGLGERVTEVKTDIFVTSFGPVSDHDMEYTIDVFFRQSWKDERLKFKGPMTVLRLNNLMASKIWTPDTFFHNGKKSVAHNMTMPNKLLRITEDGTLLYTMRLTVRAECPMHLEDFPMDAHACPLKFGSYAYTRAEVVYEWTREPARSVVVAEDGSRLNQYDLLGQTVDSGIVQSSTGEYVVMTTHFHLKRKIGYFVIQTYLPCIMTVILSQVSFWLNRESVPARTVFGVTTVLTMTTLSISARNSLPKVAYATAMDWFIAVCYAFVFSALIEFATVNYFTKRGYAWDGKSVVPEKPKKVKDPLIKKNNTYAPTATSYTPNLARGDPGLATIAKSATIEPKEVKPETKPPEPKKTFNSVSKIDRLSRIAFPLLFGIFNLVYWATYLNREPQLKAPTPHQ
T1 sequence (P47870 25-512 limits assumed): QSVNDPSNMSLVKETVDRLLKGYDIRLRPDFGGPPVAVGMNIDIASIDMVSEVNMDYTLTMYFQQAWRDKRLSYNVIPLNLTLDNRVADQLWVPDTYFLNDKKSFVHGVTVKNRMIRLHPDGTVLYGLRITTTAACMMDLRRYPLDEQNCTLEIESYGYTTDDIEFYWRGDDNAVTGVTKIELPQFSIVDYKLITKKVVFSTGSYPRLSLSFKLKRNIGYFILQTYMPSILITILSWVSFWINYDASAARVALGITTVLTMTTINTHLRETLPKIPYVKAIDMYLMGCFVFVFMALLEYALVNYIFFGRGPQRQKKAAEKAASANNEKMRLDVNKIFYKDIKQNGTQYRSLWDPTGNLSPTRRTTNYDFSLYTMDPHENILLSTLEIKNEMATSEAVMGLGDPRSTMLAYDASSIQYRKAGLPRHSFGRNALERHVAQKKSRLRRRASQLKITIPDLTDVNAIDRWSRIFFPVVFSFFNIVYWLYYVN
T1 sequence (P18507 40-475 partner): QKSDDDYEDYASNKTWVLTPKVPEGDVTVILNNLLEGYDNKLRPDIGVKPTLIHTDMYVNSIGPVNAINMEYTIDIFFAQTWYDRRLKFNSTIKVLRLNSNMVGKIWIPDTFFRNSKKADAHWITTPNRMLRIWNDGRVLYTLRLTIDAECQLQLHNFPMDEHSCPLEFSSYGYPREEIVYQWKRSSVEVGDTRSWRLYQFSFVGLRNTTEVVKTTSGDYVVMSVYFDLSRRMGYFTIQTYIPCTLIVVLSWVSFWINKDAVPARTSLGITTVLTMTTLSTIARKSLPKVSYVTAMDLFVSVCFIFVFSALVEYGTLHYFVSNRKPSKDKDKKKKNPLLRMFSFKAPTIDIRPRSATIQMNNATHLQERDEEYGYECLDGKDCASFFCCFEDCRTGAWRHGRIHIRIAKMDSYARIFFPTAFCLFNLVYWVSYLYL

Compound	pIC50 [1]	Emax at 10 µM (GABAA receptor α1β2γ2) [%]
C[C@]12CC[C@H]3[C@@H](CC[C@@H]4C[C@@](O)(CF)CC[C@@H]43)[C@@H]1CC[C@@H]2C(=O)Cn1cc(S(C)(=O)=O)cn1 [SA-33]	≤ 6.30	
COC[C@@]1(O)CC[C@H]2[C@@H](CC[C@@H]3[C@@H]2CC[C@]2(C)[C@@H](C(=O)Cn4cc(S(C)(=O)=O)cn4)CC[C@@H]32)C1 [SB-7]	≤ 6.30	
CCOC[C@@]1(O)CC[C@H]2[C@@H](CC[C@@H]3[C@@H]2CC[C@]2(C)[C@@H](C(=O)Cn4cccn4)CC[C@@H]32)C1 [SB-8]	≤ 6.30	
C[C@]12CC[C@H]3[C@@H](CC[C@@H]4C[C@@](O)(C(F)F)CC[C@@H]43)[C@@H]1CC[C@@H]2C(=O)Cn1cc(C#N)cn1 [SA-28]		> 500
CCOC(=O)c1cnn(CC(=O)[C@H]2CC[C@H]3[C@@H]4CC[C@@H]5C[C@](C)(O)CC[C@@H]5[C@H]4CC[C@]23C)c1 [SA-3]	> 8.00	> 500
C[C@]12CC[C@H]3[C@@H](CC[C@@H]4C[C@@](O)(CF)CC[C@@H]43)[C@@H]1CC[C@@H]2C(=O)Cn1cccn1 [SA-31]	6.30 to 7.00	100 to 500
Cc1cnn(CC(=O)[C@H]2CC[C@H]3[C@@H]4C[C@@H](F)[C@H]5C[C@](C)(O)CC[C@@H]5[C@H]4CC[C@]23C)c1 [SB-12]		100 to 500
CC[C@@]1(O)CC[C@H]2[C@@H](CC[C@@H]3[C@@H]2CC[C@]2(C)[C@@H](C(=O)Cn4cc(C#N)cn4)CC[C@@H]32)C1 [SB-21]		100 to 500
C[C@@]1(O)CC[C@H]2[C@H](CC[C@@H]3[C@@H]2CC[C@]2(C)[C@@H](C(=O)Cn4cc(F)cn4)CC[C@@H]32)C1 [SA-21]		> 500
COC[C@@]1(O)CC[C@H]2[C@H](CC[C@@H]3[C@@H]2CC[C@]2(C)[C@@H](C(=O)Cn4cccn4)CC[C@@H]32)C1 [SA-23]	6.30 to 7.00	> 500
CSc1cnn(CC(=O)[C@H]2CC[C@H]3[C@@H]4CC[C@@H]5C[C@](C)(O)CC[C@@H]5[C@H]4CC[C@]23C)c1 [SA-18]		> 500
COC[C@@]1(O)CC[C@H]2[C@@H](CC[C@@H]3[C@@H]2CC[C@]2(C)[C@@H](C(=O)Cn4cccn4)CC[C@@H]32)C1 [SB-4]	6.30 to 7.00	> 500
CO[C@H]1C[C@H]2[C@@H](CC[C@@H]3[C@@H]2CC[C@]2(C)[C@@H](C(=O)Cn4cccn4)CC[C@@H]32)C[C@]1(C)O [SB-19]	6.30 to 7.00	> 500
C[C@@]1(O)CC[C@@H]2[C@H]3CC[C@]4(C)[C@@H](C(=O)Cn5ccc(C#N)n5)CC[C@H]4[C@@H]3C[C@@H](F)[C@H]2C1 [SB-13]		100 to 500
Cc1cn(CC(=O)[C@H]2CC[C@H]3[C@@H]4CC[C@@H]5C[C@](C)(O)CC[C@@H]5[C@H]4CC[C@]23C)nc1C [SA-15]		100 to 500
C[C@@]1(O)CC[C@H]2[C@@H](CC[C@@H]3[C@@H]2CC[C@]2(C)[C@@H](C(=O)Cn4cc(S(C)(=O)=O)cn4)CC[C@@H]32)C1 [SB-3]	≤ 6.30	

Compound	pIC50 [1]	Emax at 10 µM (GABAA receptor α1β2γ2) [%]
C[C@]12CC[C@H]3[C@@H](CC[C@@H]4C[C@@](O)(C(F)F)CC[C@@H]43)[C@@H]1CC[C@@H]2C(=O)Cn1cccn1 [SA-27]	6.30 to 7.00	100 to 500
C[C@@]1(O)CC[C@@H]2[C@H]3CC[C@]4(C)[C@@H](C(=O)Cn5cccn5)CC[C@H]4[C@@H]3C[C@@H](F)[C@@H]2C1 [SA-25]	≤ 6.30	
C[C@@]1(O)CC[C@H]2[C@H](CC[C@@H]3[C@@H]2CC[C@]2(C)[C@@H](C(=O)Cn4cc(C(F)(F)F)cn4)CC[C@@H]32)C1 [SA-14]		100 to 500
CC[C@@]1(O)CC[C@H]2[C@H](CC[C@@H]3[C@@H]2CC[C@]2(C)[C@@H](C(=O)Cn4cc(C#N)cn4)CC[C@@H]32)C1 [SA-30]		100 to 500
C[C@]12CC[C@H]3[C@@H](CC[C@H]4C[C@@](O)(CF)CC[C@@H]43)[C@@H]1CC[C@@H]2C(=O)Cn1cc(C#N)cn1 [SB-22]	6.30 to 7.00	> 500
C[S+]([O-])c1cnn(CC(=O)[C@H]2CC[C@H]3[C@@H]4CC[C@@H]5C[C@](C)(O)CC[C@@H]5[C@H]4CC[C@]23C)c1 (stereo partly drawn) [SA-20]		100 to 500
CCOC[C@@]1(O)CC[C@H]2[C@@H](CC[C@@H]3[C@@H]2CC[C@]2(C)[C@@H](C(=O)Cn4cc(C#N)cn4)CC[C@@H]32)C1 [SB-9]		100 to 500
C[C@@H]1C[C@H]2[C@@H](CC[C@@H]3[C@@H]2CC[C@]2(C)[C@@H](C(=O)Cn4cccn4)CC[C@@H]32)C[C@]1(C)O [SB-18]	6.30 to 7.00	100 to 500
Cc1cc(C)n(CC(=O)[C@H]2CC[C@H]3[C@@H]4CC[C@@H]5C[C@](C)(O)CC[C@@H]5[C@H]4CC[C@]23C)n1 [SA-12]	7.30 to 8.00	100 to 500
CSc1cnn(CC(=O)[C@H]2CC[C@H]3[C@@H]4C[C@@H](F)[C@H]5C[C@](C)(O)CC[C@@H]5[C@H]4CC[C@]23C)c1 [SB-14]		100 to 500
CC[C@@]1(O)CC[C@H]2[C@@H](CC[C@@H]3[C@@H]2CC[C@]2(C)[C@@H](C(=O)Cn4cccn4)CC[C@@H]32)C1 [SB-20]	≤ 6.30	
C[C@]12CC[C@H]3[C@@H](CC[C@H]4C[C@@](O)(CF)CC[C@@H]43)[C@@H]1CC[C@@H]2C(=O)Cn1cccn1 [SB-23]	6.30 to 7.00	100 to 500
CC[C@@]1(O)CC[C@H]2[C@H](CC[C@@H]3[C@@H]2CC[C@]2(C)[C@@H](C(=O)Cn4cccn4)CC[C@@H]32)C1 [SA-35]	6.30 to 7.00	100 to 500
CCc1cnn(CC(=O)[C@H]2CC[C@H]3[C@@H]4CC[C@@H]5C[C@](C)(O)CC[C@@H]5[C@H]4CC[C@]23C)c1 [SA-16]		> 500
C[C@]12CC[C@H]3[C@@H](CC[C@@H]4C[C@@](O)(C(F)F)CC[C@@H]43)[C@@H]1CC[C@@H]2C(=O)Cn1cc(S(C)(=O)=O)cn1 [SA-29]	≤ 6.30	
